This passage reports IC50 results from patent US20260217673A1, “NOVEL COMPOUND AS RON INHIBITOR” (LG CHEM, LTD., priority 2022, published 2026).

The target in one test is RON (Homo sapiens, UniProt Q04912). Description: RON inhibitory activity, TR-FRET kinase assay. The class given is biochemical. Conditions: RON protein, ULight-labeled Poly GT substrate. The procedure: To measure the RON inhibitory activity of the example compounds, the IC50 of the compounds was measured using time-resolved fluorescence energy transfer (TR-FRET).
Specifically, the compound was prepared at a concentration of 1 mM with 100% DMSO and serially diluted 10 times through 3-fold dilution. 2 μl of the serially diluted compound was added to a 96-well plate containing 48 μl of 1× kinase reaction buffer (50 mM HEPES (pH 7.4), 0.01% Tween-20, 5 mM DTT, 0.5 mM Na3VO4, 2 mM EGTA, 10 mM MgCl2).
The RON protein was diluted with a RON storage buffer (50 mM Tris-HCl (pH 7.5), 150 mM NaCl, 0.5 mM EDTA, 0.02% Triton X-100) to a concentration of 49.3 nM, and then diluted again with 1× kinase reaction buffer to be 0.4 nM. As a substrate cocktail, a RON-specific substrate mixture (40 μM ULight-labeled Poly GT, 100 nM ATP) was prepared at a concentration twice the final reaction concentration.
(§1) After that, a 384-well plate was prepared, and 2.5 μl of the diluted example compound was added to each of the experimental group wells, and 2.5 μl of a 4% DMSO solution was dispensed into high control wells and low control wells.
(§2) Afterward, 2.5 μl of 0.4 nM RON was dispensed into the high control wells and the experimental group wells, and 2.5 μl of 1× kinase reaction buffer was added to the low control wells, and after centrifugation at 1000 RPM for 40 seconds at room temperature, the mixtures were incubated at room temperature for 20 to 30 minutes. Then, 5 μl of the substrate cocktail (2×) was dispensed into all wells, and after centrifugation at 1000 RPM for 40 seconds at room temperature, the mixtures were incubated at room temperature for 60 minutes. Afterward, 5 μl of 30 mM EDTA was added to all wells to terminate the reaction, and the mixtures were incubated again at room temperature for 5 minutes. Thereafter, 5 μl of 4× phosphotyrosine antibodies (Perkin Elmer) containing europium was added to all wells and incubated at room temperature for 60 minutes. After the incubation, the 384-well-plate was read with a Vison plate reader. At this time, the excitation wavelength was 340 nm, and the emission wavelengths were 620 nm and 665 nm. The IC50 value of each example compound was derived using the GraphPd Prism7 program.

The target in a further test is cMET (Homo sapiens, UniProt P08581). Description: MET (cMET) enzyme inhibitory activity, TR-FRET kinase assay. Type of test: biochemical. Conditions: cMET protein, TK peptide substrate. The procedure: In addition, to measure cMET enzyme activity inhibition, an experiment was performed by the same method as the experiment for measuring the RON enzyme activity inhibition.
Specifically, the compound was prepared at a concentration of 1 mM with 100% DMSO and serially diluted 10 times through 3-fold dilution. 2 μl of the serially diluted compound was added to a 96-well plate containing 48 μl 1× kinase reaction buffer (50 mM HEPES (pH 7.4), 0.05% BSA, 0.005% Tween-20, 1 mM DTT, 0.5 mM MnCl2, 20 mM MgCl2).
The cMET protein was diluted in a cMET storage buffer (50 mM Tris-HCl (pH 7.5), 150 mM NaCl, 0.05% Brij35, 1 mM DTT, 10% glycerol) to a concentration of 263 nM, and then diluted again with 1× kinase reaction buffer to 2 nM. As a substrate cocktail, a MET-specific substrate mixture (5 μM TK peptide, 10 mM ATP) was prepared at a concentration twice the final reaction concentration.
as §1
as §2, with “μl of 2 nM cMET” for “μl of 0.4 nM RON”, “2 nM cMET was dispensed” for “0.4 nM RON was dispensed”, “was dispensed to the high” for “was dispensed into the high”, “μl of 90 mM EDTA” for “μl of 30 mM EDTA”
(Time-resolved FRET reads energy transfer from a long-lived donor to a nearby acceptor.)

Sequence of RON (Q04912 25-1400, species assumed): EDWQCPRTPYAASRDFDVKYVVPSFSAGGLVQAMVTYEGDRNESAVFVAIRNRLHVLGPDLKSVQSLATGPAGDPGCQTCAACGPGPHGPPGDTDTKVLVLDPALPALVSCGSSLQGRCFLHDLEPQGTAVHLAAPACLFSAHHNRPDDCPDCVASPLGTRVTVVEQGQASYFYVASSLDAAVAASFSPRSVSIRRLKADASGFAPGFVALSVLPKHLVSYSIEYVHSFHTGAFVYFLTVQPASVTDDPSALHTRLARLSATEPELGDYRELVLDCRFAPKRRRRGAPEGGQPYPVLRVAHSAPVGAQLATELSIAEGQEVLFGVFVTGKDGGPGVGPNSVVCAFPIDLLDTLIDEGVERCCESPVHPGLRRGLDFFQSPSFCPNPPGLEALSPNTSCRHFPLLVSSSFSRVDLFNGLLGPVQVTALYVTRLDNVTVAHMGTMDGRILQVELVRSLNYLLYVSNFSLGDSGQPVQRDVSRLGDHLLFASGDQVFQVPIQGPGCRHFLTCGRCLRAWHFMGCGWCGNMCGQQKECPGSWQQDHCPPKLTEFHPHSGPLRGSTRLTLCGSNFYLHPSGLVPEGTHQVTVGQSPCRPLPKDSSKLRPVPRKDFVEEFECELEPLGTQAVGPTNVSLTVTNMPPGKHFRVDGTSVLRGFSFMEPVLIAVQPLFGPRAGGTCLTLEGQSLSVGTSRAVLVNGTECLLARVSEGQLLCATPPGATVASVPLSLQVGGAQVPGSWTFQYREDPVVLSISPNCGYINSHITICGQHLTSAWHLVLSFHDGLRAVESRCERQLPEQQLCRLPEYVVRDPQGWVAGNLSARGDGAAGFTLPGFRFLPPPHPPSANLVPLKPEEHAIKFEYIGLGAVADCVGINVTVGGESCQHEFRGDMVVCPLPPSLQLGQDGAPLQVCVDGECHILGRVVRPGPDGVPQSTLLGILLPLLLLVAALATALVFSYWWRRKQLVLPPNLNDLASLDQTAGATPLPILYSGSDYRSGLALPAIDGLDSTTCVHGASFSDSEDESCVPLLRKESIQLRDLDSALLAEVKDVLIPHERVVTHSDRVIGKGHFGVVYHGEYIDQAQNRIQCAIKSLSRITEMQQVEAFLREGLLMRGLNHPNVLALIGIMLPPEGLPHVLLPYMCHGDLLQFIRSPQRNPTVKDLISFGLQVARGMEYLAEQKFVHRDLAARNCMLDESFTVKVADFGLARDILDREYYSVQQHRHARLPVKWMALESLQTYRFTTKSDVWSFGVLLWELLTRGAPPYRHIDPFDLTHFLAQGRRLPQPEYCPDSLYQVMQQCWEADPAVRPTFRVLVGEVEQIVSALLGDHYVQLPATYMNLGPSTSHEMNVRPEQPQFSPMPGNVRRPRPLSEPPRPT
Sequence of cMET (P08581 25-1390): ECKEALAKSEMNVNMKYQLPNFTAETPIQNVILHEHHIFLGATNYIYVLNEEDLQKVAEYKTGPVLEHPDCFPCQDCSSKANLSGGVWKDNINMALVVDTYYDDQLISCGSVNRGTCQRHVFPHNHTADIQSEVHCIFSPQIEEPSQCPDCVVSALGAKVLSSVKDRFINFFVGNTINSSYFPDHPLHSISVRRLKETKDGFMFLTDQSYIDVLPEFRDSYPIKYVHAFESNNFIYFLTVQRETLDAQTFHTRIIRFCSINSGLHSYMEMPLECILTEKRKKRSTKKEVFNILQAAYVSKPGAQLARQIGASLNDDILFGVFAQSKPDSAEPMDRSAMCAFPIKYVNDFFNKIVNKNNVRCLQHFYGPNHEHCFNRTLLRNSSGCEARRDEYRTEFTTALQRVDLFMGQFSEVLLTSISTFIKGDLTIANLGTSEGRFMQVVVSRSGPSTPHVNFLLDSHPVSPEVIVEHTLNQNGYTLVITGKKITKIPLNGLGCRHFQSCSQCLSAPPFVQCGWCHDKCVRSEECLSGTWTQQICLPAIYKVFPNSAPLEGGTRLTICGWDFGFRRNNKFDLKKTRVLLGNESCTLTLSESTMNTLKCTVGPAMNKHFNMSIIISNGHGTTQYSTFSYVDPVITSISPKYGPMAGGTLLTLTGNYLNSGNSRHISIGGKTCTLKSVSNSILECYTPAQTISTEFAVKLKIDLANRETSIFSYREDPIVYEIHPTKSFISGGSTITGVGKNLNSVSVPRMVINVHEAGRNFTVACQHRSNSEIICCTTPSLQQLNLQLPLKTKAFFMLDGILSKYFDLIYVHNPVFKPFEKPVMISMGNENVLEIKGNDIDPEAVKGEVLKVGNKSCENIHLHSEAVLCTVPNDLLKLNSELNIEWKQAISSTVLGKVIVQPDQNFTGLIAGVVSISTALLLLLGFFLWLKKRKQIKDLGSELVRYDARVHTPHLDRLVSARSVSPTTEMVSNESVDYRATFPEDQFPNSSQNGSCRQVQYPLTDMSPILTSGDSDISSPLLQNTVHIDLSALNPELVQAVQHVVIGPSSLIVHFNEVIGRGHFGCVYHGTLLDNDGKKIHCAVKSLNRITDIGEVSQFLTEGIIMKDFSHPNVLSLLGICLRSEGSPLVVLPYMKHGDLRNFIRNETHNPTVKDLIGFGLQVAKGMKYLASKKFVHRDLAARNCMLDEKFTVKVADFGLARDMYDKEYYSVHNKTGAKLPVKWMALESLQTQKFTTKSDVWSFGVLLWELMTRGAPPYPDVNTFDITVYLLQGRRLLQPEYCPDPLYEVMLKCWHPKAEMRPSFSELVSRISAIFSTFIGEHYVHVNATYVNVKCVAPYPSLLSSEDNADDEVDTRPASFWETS

Regarding `Nc1nccc(Oc2c(F)cc(NC(=O)c3cnn(-c4ncccc4F)c3C(F)(F)F)cc2F)c1C1CC1` [Example 38, N-(4-((2-amino-3-cyclopropylpyridin-4-yl)oxy)-3,5-difluorophenyl)-1-(3-fluoropyridin-2-yl)-5-(trifluoromethyl)-1H-pyrazole-4-carboxamide], the results for the IC50 against RON and at cMET were less than 50 nM and 500 to 5000 nM, respectively.
With `Nc1nccc(Oc2c(F)cc(NC(=O)c3cnn(-c4ncccc4Cl)c3C(F)(F)F)cc2F)c1C1CC1` [Example 39, N-(4-((2-amino-3-cyclopropylpyridin-4-yl)oxy)-3,5-difluorophenyl)-1-(3-chloropyridin-2-yl)-5-(trifluoromethyl)-1H-pyrazole-4-carboxamide], the IC50 – broadly, the concentration that inhibits the measured activity by half – on RON is less than 50 nM; at cMET, 500 to 5000 nM.
In the case of `Nc1nccc(Oc2c(F)cc(NC(=O)c3cnn(-c4ccccn4)c3C(F)(F)F)cc2F)c1C1CC1` [Example 40, N-(4-((2-amino-3-cyclopropylpyridin-4-yl)oxy)-3,5-difluorophenyl)-1-(pyridin-2-yl)-5-(trifluoromethyl)-1H-pyrazole-4-carboxamide], the IC50 against RON is less than 50 nM; on cMET, 500 to 5000 nM.
Take `Nc1nccc(Oc2c(F)cc(NC(=O)c3cnn(-c4ncccn4)c3C(F)(F)F)cc2F)c1C1CC1` [Example 41, N-(4-((2-amino-3-cyclopropylpyridin-4-yl)oxy)-3,5-difluorophenyl)-1-(pyrimidin-2-yl)-5-(trifluoromethyl)-1H-pyrazole-4-carboxamide]: the IC50 is less than 50 nM against RON and 500 to 5000 nM at cMET.
For `Nc1nccc(Oc2c(F)cc(NC(=O)c3cnn(-c4cccnn4)c3C(F)(F)F)cc2F)c1C1CC1` [Example 42, N-(4-((2-amino-3-cyclopropylpyridin-4-yl)oxy)-3,5-difluorophenyl)-1-(pyridazin-3-yl)-5-(trifluoromethyl)-1H-pyrazole-4-carboxamide], the values for the IC50 against RON and at cMET were less than 50 nM and 500 to 5000 nM, respectively.
As to `CC(C)c1c(Oc2c(F)cc(NC(=O)c3cnn(-c4ccccc4)c3C(F)(F)F)cc2F)ccnc1N` [Example 43, N-(4-((2-amino-3-isopropylpyridin-4-yl)oxy)-3,5-difluorophenyl)-1-phenyl-5-(trifluoromethyl)-1H-pyrazole-4-carboxamide], the half-inhibitory concentration (IC50) at RON was less than 50 nM; on cMET it was 500 to 5000 nM.
On to `CC(C)c1c(Oc2c(F)cc(NC(=O)c3cnn(-c4ncccc4Cl)c3C(F)(F)F)cc2F)ccnc1N` [Example 44, N-(4-((2-amino-3-isopropylpyridin-4-yl)oxy)-3,5-difluorophenyl)-1-(3-chloropyridin-2-yl)-5-(trifluoromethyl)-1H-pyrazole-4-carboxamide], for which the IC50 on RON is less than 50 nM; on cMET it was 500 to 5000 nM.
`CC(C)c1c(Oc2c(F)cc(NC(=O)c3cnn(-c4ncccn4)c3C(F)(F)F)cc2F)ccnc1N` [Example 45, N-(4-((2-amino-3-isopropylpyridin-4-yl)oxy)-3,5-difluorophenyl)-1-(pyrimidin-2-yl)-5-(trifluoromethyl)-1H-pyrazole-4-carboxamide]: the figures for the half-maximal inhibitory concentration (IC50) against RON and on cMET were less than 50 nM and 500 to 5000 nM, respectively.
With `CC(C)c1c(Oc2c(F)cc(NC(=O)c3cnn(-c4ncccc4F)c3C(F)(F)F)cc2F)ccnc1N` [Example 46, N-(4-((2-amino-3-isopropylpyridin-4-yl)oxy)-3,5-difluorophenyl)-1-(3-fluoropyridin-2-yl)-5-(trifluoromethyl)-1H-pyrazole-4-carboxamide], the IC50 against RON was less than 50 nM; against cMET it was 500 to 5000 nM.
With `Nc1nccc(Oc2c(F)cc(NC(=O)c3cnn(-c4ncccc4F)c3C(F)(F)F)cc2F)c1CN1CCOCC1` [Example 47, N-(4-((2-amino-3-(morpholinomethyl)pyridin-4-yl)oxy)-3,5-difluorophenyl)-1-(3-fluoropyridine-2-yl)-5-(trifluoromethyl)-1H-pyrazole-4-carboxamide], the results for the IC50 on RON and against cMET were less than 50 nM and 500 to 5000 nM, respectively.
For the molecule `Nc1nccc(Oc2c(F)cc(NC(=O)c3cnn(-c4ncccn4)c3C(F)(F)F)cc2F)c1CN1CCOCC1` [Example 48, N-(4-((2-amino-3-(morpholinomethyl)pyridin-4-yl)oxy)-3,5-difluorophenyl)-1-(pyrimidin-2-yl)-5-(trifluoromethyl)-1H-pyrazole-4-carboxamide], the figures for the IC50 on RON and against cMET were less than 50 nM and greater than 5000 nM, respectively.
On to `Nc1nccc(Oc2c(F)cc(NC(=O)c3cnn(-c4ncccc4Cl)c3C(F)(F)F)cc2F)c1CN1CCOCC1` [Example 49, N-(4-((2-amino-3-(morpholinomethyl)pyridin-4-yl)oxy)-3,5-difluorophenyl)-1-(3-chloropyridin-2-yl)-5-(trifluoromethyl)-1H-pyrazole-4-carboxamide], for which the IC50 is less than 50 nM on RON and 500 to 5000 nM against cMET.
For the molecule `Nc1nccc(Oc2c(F)cc(NC(=O)c3cnn(-c4ccccc4)c3C(F)(F)F)cc2F)c1CN1CCOCC1` [Example 50, N-(4-((2-amino-3-(morpholinomethyl)pyridin-4-yl)oxy)-3,5-difluorophenyl)-1-phenyl-5-(trifluoromethyl)-1H-pyrazole-4-carboxamide], the IC50 against RON was less than 50 nM; at cMET, 500 to 5000 nM.
Regarding `Nc1nccc(Oc2c(F)cc(NC(=O)c3cnn(-c4ccccc4)c3C(F)(F)F)cc2F)c1C#CCO` [Example 51, N-(4-((2-amino-3-(3-hydroxyprop-1-yn-1-yl)pyridin-4-yl)oxy)-3,5-difluorophenyl)-1-phenyl-5-(trifluoromethyl)-1H-pyrazole-4-carboxamide], the IC50 against RON is less than 50 nM; on cMET it was 500 to 5000 nM.
With `Nc1nccc(Oc2c(F)cc(NC(=O)c3cnn(-c4ccccn4)c3C(F)(F)F)cc2F)c1C#CCO` [Example 52, N-(4-((2-amino-3-(3-hydroxyprop-1-yn-1-yl)pyridin-4-yl)oxy)-3,5-difluorophenyl)-1-(pyridin-2-yl)-5-(trifluoromethyl)-1H-pyrazole-4-carboxamide], the IC50 against RON was less than 50 nM; on cMET, 50 to 500 nM.
In the same order, the values of `Nc1nccc(Oc2c(F)cc(NC(=O)c3cnn(-c4ncccc4F)c3C(F)(F)F)cc2F)c1C#CCO` [Example 53, N-(4-((2-amino-3-(3-hydroxyprop-1-yn-1-yl)pyridin-4-yl)oxy)-3,5-difluorophenyl)-1-(3-fluoropyridin-2-yl)-5-(trifluoromethyl)-1H-pyrazole-4-carboxamide] are less than 50 nM and 50 to 500 nM.
The like results for `Nc1nccc(Oc2c(F)cc(NC(=O)c3cnn(-c4ncccc4Cl)c3C(F)(F)F)cc2F)c1C#CCO` [Example 54, N-(4-((2-amino-3-(3-hydroxyprop-1-yn-1-yl)pyridin-4-yl)oxy)-3,5-difluorophenyl)-1-(3-chloropyridin-2-yl)-5-(trifluoromethyl)-1H-pyrazole-4-carboxamide] were, in that order, less than 50 nM and 50 to 500 nM.
On to `Nc1nccc(Oc2c(F)cc(NC(=O)c3cnn(-c4ncccn4)c3C(F)(F)F)cc2F)c1C#CCO` [Example 55, N-(4-((2-amino-3-(3-hydroxyprop-1-yn-1-yl)pyridin-4-yl)oxy)-3,5-difluorophenyl)-1-(pyrimidin-2-yl)-5-(trifluoromethyl)-1H-pyrazole-4-carboxamide], for which the IC50 against RON is less than 50 nM; on cMET, 50 to 500 nM.
